Assay results taken from patent publication US3944498A, “Germicidal detergent containing a thienyliodonium salt” (The Dow Chemical Company, priority 1973, dated 1976).

Columns and labels:
Swiss mice (Cox strain) = assay: Oral median lethal dose in Swiss mice (Cox strain); format: in vivo
Protocol: (§1) Five groups of mice, each consisting of 15 males and 15 females, were given ClPhThICl in an aqueous 0.5 percent METHOCEL hydroxypropyl methylcellulose (4000 cps.) suspension at a concentration of 300 mg/ml. The compound was administered as a single oral dose at 0.2 logarithmic dose intervals (708, 1120, 1780, 2820, 4450 mg/kg) and the following mortality experience was noted:
(§2) The percent of total mortalities occurring was 16.0, 66.6, 81.5, and 91.3 at 6, 24, 48 and 72 hours post-treatment, respectively. The last death occurred in a female (1120 mg/kg group) on day 14 of the study.

[1] = Oral median lethal dose in Swiss mice (Cox strain); format: in vivo; conditions: mouse, in vivo, po; for LD50 at 168 h: 7 days; for LD50 at 336 h: 14 days
Protocol: as §1, §2

[2] = male mice, 95% confidence limits 1353-2288 mg/kg

## Clc1ccc([I+]c2cccs2)cc1.[Cl-] [4-Chlorophenyl-2-thienyliodonium chloride]
Swiss mice (Cox strain); 708 mg/kg oral, 7 Days, females
  No. Dead: 1/15
Swiss mice (Cox strain); 708 mg/kg oral, 7 Days, males
  No. Dead: 0/15
Swiss mice (Cox strain); 708 mg/kg oral, 14 Days, females
  No. Dead: 2/15
Swiss mice (Cox strain); 708 mg/kg oral, 14 Days, males
  No. Dead: 1/15
Swiss mice (Cox strain); 708 mg/kg oral, 24 Hours, females
  No. Dead: 0/15
Swiss mice (Cox strain); 708 mg/kg oral, 24 Hours, males
  No. Dead: 0/15
Swiss mice (Cox strain); 1120 mg/kg oral, 7 Days, females
  No. Dead: 1/15
Swiss mice (Cox strain); 1120 mg/kg oral, 7 Days, males
  No. Dead: 1/15
Swiss mice (Cox strain); 1120 mg/kg oral, 14 Days, females
  No. Dead: 2/15
Swiss mice (Cox strain); 1120 mg/kg oral, 14 Days, males
  No. Dead: 1/15
Swiss mice (Cox strain); 1120 mg/kg oral, 24 Hours, females
  No. Dead: 0/15
Swiss mice (Cox strain); 1120 mg/kg oral, 24 Hours, males
  No. Dead: 0/15
Swiss mice (Cox strain); 1780 mg/kg oral, 7 Days, females
  No. Dead: 8/15
Swiss mice (Cox strain); 1780 mg/kg oral, 7 Days, males
  No. Dead: 8/15
Swiss mice (Cox strain); 1780 mg/kg oral, 14 Days, females
  No. Dead: 8/15
Swiss mice (Cox strain); 1780 mg/kg oral, 14 Days, males
  No. Dead: 9/15
Swiss mice (Cox strain); 1780 mg/kg oral, 24 Hours, females
  No. Dead: 4/15
Swiss mice (Cox strain); 1780 mg/kg oral, 24 Hours, males
  No. Dead: 3/15
Swiss mice (Cox strain); 2820 mg/kg oral, 7 Days, females
  No. Dead: 14/15
Swiss mice (Cox strain); 2820 mg/kg oral, 7 Days, males
  No. Dead: 14/15
Swiss mice (Cox strain); 2820 mg/kg oral, 14 Days, females
  No. Dead: 14/15
Swiss mice (Cox strain); 2820 mg/kg oral, 14 Days, males
  No. Dead: 14/15
Swiss mice (Cox strain); 2820 mg/kg oral, 24 Hours, females
  No. Dead: 8/15
Swiss mice (Cox strain); 2820 mg/kg oral, 24 Hours, males
  No. Dead: 11/15
Swiss mice (Cox strain); 4450 mg/kg oral, 7 Days, females
  No. Dead: 15/15
Swiss mice (Cox strain); 4450 mg/kg oral, 7 Days, males
  No. Dead: 15/15
Swiss mice (Cox strain); 4450 mg/kg oral, 14 Days, females
  No. Dead: 15/15
Swiss mice (Cox strain); 4450 mg/kg oral, 14 Days, males
  No. Dead: 15/15
Swiss mice (Cox strain); 4450 mg/kg oral, 24 Hours, females
  No. Dead: 13/15
Swiss mice (Cox strain); 4450 mg/kg oral, 24 Hours, males
  No. Dead: 15/15
Swiss mice (Cox strain); 6 hours post-treatment
  percent of total mortalities occurring: 16.0%
Swiss mice (Cox strain); 24 hours post-treatment
  percent of total mortalities occurring: 66.6%
Swiss mice (Cox strain); 48 hours post-treatment
  percent of total mortalities occurring: 81.5%
Swiss mice (Cox strain); 72 hours post-treatment
  percent of total mortalities occurring: 91.3%
Swiss mice (Cox strain); female, 1120 mg/kg group
  time of last death: 14 days
[1]; female mice, 95% confidence limits 2300-3591 mg/kg
  LD50 at 24 h: 2700 mg/kg
[1]; male mice, 95% confidence limits 1916-2760 mg/kg
  LD50 at 24 h: 2300 mg/kg
[1]; female mice, 95% confidence limits 1172-2455 mg/kg
  LD50 at 168 h: 1700 mg/kg
[1]; [2]
  LD50 at 168 h: 1760 mg/kg
  LD50 at 336 h: 1760 mg/kg
[1]; female mice, 95% confidence limits 1264-1975 mg/kg
  LD50 at 336 h: 1580 mg/kg
